According to patent US12459921B2, “Isoindoline compound, preparation method, pharmaceutical composition and use thereof” (SHANGHAI INSTITUTE OF MATERIA MEDICA, CHINESE ACADEMY OF …, priority 2018, dated 2025):
pIC50: −log10 of the molar value. Like-named read-outs stand apart in the source and are kept apart here.

Legend:
[1] = test system: MV-4-11 cells; experiment: Inhibitory effect on the proliferation of MV-4-11 cells, MTS cell viability test; type: cell-based; details: acute leukemia MV-4-11 cells, 7 days incubation, read-out: Tumor cell inhibitory activity
Description: Method of tumor cell proliferation inhibition test: the inventors tested all the example compounds on hematologic tumor cells, multiple myeloma MMTs cell line and acute leukemia cell MV-4-11 cell line of some examples. The activity test method and results are as follows.
2. The Inhibitory Effect of Compounds on the Proliferation of MV-4-11 Cells, MTS Cell Viability Test: 1). Experimental Method:
MV-4-11 cells were cultured and collected with IMDM and 10% fetal bovine serum. The cell concentration was diluted according to 7 days, and 180 ul of cell suspension was added to each well of a 96-well cell plate to 2000 cells. 20 ul of DMSO with a final concentration of 0.2% was added to the control wells. The compound was diluted 5-fold from the 10 mM stock solution, and 20 ul was also added to the compound cell wells (the final concentration of DMSO was 0.2%). The cells were placed in a 37° C., 5% CO2 incubator and incubated for 7 days. After the reaction solution was prepared according to the MTS kit (Promega, G5430), 20 μL was added to each well, incubated in a 37° C., 5% CO2 incubator for 3-4 h. The 490 nm absorbance value was read with a microtiter plate, and the 690 nm absorbance value was used as the background value. OD490-OD690 was used as the final initial data. The formula for calculating the inhibition rate of the compound was: inhibition rate=(ODDMSO-ODcompound)/(ODDMSO-Oblank)×100%. The compound's proliferation inhibition IC50 was fitted by Graph Pad Prism 5.0. The experiment was repeated three times, and the average and standard deviation was calculated according to three parallel experiments each time.

[2] = test system: MM.1S cells; experiment: Inhibitory effect on the proliferation of MM.1S, MTS cell viability test; type: cell-based; details: multiple myeloma MM.1S cells, 7 days incubation, read-out: Tumor cell inhibitory activity
Summary of the method: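 MM.1S cells (20,000/well, RPMI 1640 with 10% FBS) exposed to 5-fold compound dilutions at 0.2% DMSO for 7 days at 37° C, 5% CO2. MTS added for 3-4 h; OD490-OD690 gave inhibition versus DMSO, IC50 fitted, mean of three experiments.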

Structure (SMILES) | pIC50 [1] | pIC50 [2] | pIC50 ([1]; Homo sapiens, MV4-11, 168 h) | pIC50 ([2]; Homo sapiens, MM1.S, 168 h)
O=C1CCC(N2Cc3c(CCCCCN4CCC(c5noc6cc(F)ccc56)CC4)cccc3C2=O)C(=O)N1 (stereo not drawn) [Example 226, 3-(4-(5-(4-(6-fluorobenzisoxazole-3-yl)piperidin-1-yl)pentyl)-1-oxoisoindoline-2-yl)piperidine-2,6-] | 6.29 | 4.70 to 6.00 |  | 
N#CC1(c2cc(Cl)ccc2Cl)CCN(CCCCCc2cccc3c2CN(C2CCC(=O)NC2=O)C3=O)CC1 (stereo not drawn) [Example 248, 4-(2,5-dichlorophenyl)-1-(5-(2-(2,6-dioxopiperidine-3-yl)-1-oxoisoindoline-4-yl)pentyl)piperidine-4-carbonitrile] |  |  | 6.18 | 4.70 to 6.00
O=C1CCC(N2Cc3c(CCCCCN4CCC5(CC4)C(=O)Nc4cc(Cl)ccc45)cccc3C2=O)C(=O)N1 (stereo not drawn) [Example 275, 3-(4-(5-(6-chloro-2-oxospiro[dihydroindole-3,4-piperidin]-1-yl)pentyl)-1-oxoisoindoline-2-yl)piperidine-2,6-dione] |  |  | 6.20 | 6.00 to 7.00

The next lines start with the values.

pIC50 [1] | pIC50 [2] | pIC50 ([1]; Homo sapiens, MV4-11, 168 h) | pIC50 ([2]; Homo sapiens, MM1.S, 168 h) | Structure (SMILES)
 |  | 6.32 | 6.00 to 7.00 | O=C1CCC(N2Cc3c(CCCCCN4CCN(c5c(Cl)cccc5Cl)CC4)cccc3C2=O)C(=O)N1 (stereo not drawn) [Example 235, 3-(4-(5-(4-(2,6-dichlorophenyl)piperazine-1-yl)pentyl)-1-oxoisoindoline-2-yl)piperidine-2,6-dione]
 |  | < 4.70 | 6.00 to 7.00 | Nc1cccc2c1CN(C1CCC(=O)NC1=O)C2=O (stereo not drawn) [Lenalidomide, lenalidomide, reference compound]
 |  | < 4.70 | > 7.00 | Nc1cccc2c1C(=O)N(C1CCC(=O)NC1=O)C2=O (stereo not drawn) [Pomalidomide, pomalidomide, reference compound]
